The subject of test [1] is proton-gated currents in cortical neurons. It counts as cell-based, mouse. The following applies: conditioning pH 7.2.
Another test has as its system ASIC1a. The note with it: cited from earlier work; for effect on steady-state desensitization of mouse ASIC1a: ref Sherwood and Askwith, 2008.
The target in a further test is T1, mouse ASIC1a (Mus musculus, UniProt Q6NXK8).
T1 sequence (Q6NXK8 1-526): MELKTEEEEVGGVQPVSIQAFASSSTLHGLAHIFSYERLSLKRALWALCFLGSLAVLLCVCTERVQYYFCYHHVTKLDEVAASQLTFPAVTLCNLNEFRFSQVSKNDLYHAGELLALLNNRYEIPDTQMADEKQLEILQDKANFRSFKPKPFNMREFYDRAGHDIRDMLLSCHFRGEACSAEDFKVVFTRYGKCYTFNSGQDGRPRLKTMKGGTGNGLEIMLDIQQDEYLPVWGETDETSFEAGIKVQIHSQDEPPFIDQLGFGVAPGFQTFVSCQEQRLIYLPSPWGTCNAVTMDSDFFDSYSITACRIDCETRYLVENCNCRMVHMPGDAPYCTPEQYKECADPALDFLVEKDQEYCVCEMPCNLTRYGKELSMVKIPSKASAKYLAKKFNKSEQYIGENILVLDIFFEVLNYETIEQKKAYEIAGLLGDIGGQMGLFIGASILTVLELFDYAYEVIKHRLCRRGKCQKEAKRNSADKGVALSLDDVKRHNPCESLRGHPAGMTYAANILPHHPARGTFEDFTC
Briefly: Competition of Big Dynorphin with PcTx1 for ASIC1a modulation, Xenopus oocytes. It counts as cell-based. The note with it: conditioning pH 7.2; PcTx1 0.2 µM or Big Dynorphin 1 µM alone.

For a further test, the system named is ASIC1a:F352L. Briefly: Steady-state desensitization of mutant ASIC1a:F352L. It counts as cell-based, mouse. The note with it: peptide alone; conditioning pH 6.65; n = 3.

`C=CCN1CC[C@]23c4c5ccc(O)c4O[C@H]2C(=O)CC[C@@]3(O)[C@H]1C5` [Naloxone]: the “effect of antagonist alone on proton-gated current” value in test [1] was “neither of which had any affect on proton-gated currents alone”.
Take FMRFamide: the “competition with PcTx1” value in the test on ASIC1a (ref Salinas et al., 2006) is “does not compete with PcTx1”. For the same molecule, the “effect on steady-state desensitization of mouse ASIC1a” value with ASIC1a was “but not FMRFamide, prevented steady-state desensitization of mouse ASIC1a”.
Take FRRFamide: in the test on ASIC1a, the “effect on steady-state desensitization of mouse ASIC1a” value is “prevented steady-state desensitization of mouse ASIC1a”.
With PcTx1, the “effect on ASIC1a steady-state desensitization, peptide alone” value with mouse ASIC1a is “steady-state desensitization induced by pH 7.2 was enhanced and acid-evoked current was reduced”. In the test with ASIC1a:F352L, the “effect on steady-state desensitization of ASIC1a:F352L” value is “PcTx1 alone had no effect”. Also, in the test on ASIC1a (ref Escoubas et al., 2000, Chen et al., 2006a, Salinas et al., 2006), the “effect on ASIC1a steady-state desensitization” value is listed as “specifically binds the extracellular domain of ASIC1 to enhance the proton-sensitivity of steady-state desensitization”.

These data come from article PMC2802056 (The Journal of neuroscience : the official journal of the …, 2009).
